# Data taken from PMC6336890 (Scientific Reports, 2019).
# Biological target: PARP1 (Homo sapiens, UniProt P09874)
# Assay: in vitro PARP1 activity ELISA, recombinant enzyme
# Type: biochemical
# PARP1, sequence (P09874 2-1014): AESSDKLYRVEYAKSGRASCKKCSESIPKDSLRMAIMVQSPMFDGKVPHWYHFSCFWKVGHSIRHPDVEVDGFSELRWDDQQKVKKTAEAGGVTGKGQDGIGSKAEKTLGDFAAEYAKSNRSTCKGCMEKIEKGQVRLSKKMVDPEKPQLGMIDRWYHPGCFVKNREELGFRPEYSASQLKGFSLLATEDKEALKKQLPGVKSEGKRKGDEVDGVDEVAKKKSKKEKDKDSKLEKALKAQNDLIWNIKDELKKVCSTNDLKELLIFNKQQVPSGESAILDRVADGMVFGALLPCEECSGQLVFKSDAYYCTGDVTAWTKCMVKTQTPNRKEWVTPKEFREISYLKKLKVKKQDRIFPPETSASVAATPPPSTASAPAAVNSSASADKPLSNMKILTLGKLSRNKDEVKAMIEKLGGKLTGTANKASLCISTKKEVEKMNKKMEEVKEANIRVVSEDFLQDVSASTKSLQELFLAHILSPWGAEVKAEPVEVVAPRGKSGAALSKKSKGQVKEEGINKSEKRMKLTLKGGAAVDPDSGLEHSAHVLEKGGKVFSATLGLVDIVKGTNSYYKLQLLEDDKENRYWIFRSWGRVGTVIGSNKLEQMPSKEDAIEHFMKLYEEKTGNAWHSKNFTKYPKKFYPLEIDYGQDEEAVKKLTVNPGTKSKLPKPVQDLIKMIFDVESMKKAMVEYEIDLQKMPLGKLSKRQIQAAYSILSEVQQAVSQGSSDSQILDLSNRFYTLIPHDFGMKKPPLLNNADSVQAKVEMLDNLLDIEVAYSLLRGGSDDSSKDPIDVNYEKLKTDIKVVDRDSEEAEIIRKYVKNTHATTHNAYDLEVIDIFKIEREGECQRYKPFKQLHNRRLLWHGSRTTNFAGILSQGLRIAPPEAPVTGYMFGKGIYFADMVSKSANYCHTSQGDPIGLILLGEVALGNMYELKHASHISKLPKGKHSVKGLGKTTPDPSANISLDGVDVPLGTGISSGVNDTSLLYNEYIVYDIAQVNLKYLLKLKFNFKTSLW
structure (smiles),measurement,value
Cc1ccc2c(=O)[nH]c(-c3ccc(C(C)(C)O)cc3)cn12 [MSC2504877],IC50,540 nM
